Reference: PMC8159961, “Exploring protein hotspots by optimized fragment pharmacophores” (Nature Communications, 2021)
“And” between values parts separate entries of the source, which are not always exact repeats. Equal values may be shown once. “Also recorded” adds a separate entry of the source. Read-outs that look alike come from different tables or passages of the source.

How the values were obtained:
[1] = molecular target: T1, SARS-CoV-2 NSP3 macrodomain (Severe acute respiratory syndrome coronavirus 2, UniProt P0DTD1); test: NSP3 macrodomain HTRF assay, displacement of ADP-ribose-conjugated biotin peptide; type: binding
human 5-HT6 receptor = molecular target: T2, human 5-HT6 receptor (Homo sapiens, UniProt P50406); test: GPCR radioligand binding assay, [3H]-LSD displacement, HEK293 membranes
T2 construct: expressed in transfected cells
T2 sequence (P50406 whole entry): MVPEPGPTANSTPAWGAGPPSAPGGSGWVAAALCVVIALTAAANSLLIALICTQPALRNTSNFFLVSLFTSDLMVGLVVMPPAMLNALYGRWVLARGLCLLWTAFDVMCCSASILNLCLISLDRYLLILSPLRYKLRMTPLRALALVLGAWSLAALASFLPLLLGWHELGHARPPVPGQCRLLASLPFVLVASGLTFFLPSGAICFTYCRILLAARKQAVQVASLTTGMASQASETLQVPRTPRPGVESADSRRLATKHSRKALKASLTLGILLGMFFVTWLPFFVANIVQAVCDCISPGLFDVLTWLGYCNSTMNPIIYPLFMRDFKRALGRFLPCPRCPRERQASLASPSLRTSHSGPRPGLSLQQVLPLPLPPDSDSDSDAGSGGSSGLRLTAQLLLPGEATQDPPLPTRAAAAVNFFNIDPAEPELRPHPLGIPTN

human 5-HT7b receptor = molecular target: T3, human 5-HT7b receptor (Homo sapiens, UniProt P34969); test: GPCR radioligand binding assay, [3H]-5-CT displacement, HEK293 membranes
T3 construct: expressed in transfected cells
T3 sequence (P34969 1-432): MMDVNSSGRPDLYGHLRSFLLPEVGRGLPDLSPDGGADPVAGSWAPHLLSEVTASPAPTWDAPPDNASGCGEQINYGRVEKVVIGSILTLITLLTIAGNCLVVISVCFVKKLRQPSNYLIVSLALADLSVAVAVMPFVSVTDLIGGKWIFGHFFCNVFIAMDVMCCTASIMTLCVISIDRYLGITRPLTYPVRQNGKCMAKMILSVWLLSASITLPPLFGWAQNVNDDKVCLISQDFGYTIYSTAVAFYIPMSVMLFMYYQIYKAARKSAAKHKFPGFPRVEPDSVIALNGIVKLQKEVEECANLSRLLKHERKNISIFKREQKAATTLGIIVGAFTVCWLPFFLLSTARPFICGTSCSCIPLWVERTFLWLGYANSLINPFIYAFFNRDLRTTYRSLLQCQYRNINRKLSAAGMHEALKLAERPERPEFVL

human thrombin = molecular target: T4, human thrombin (Homo sapiens, UniProt P00734); test: Protease inhibitory assay, chromogenic substrate S-2238; type: biochemical; conditions: plate layout, label = plate position; Cheng-Prusoff, Km 2.6 µM; read-out: Thrombin Ki
T4 construct: human thrombin; purchased Sigma-Aldrich

SARS-CoV-2 = test: microbe, parasite or virus in culture; type: cell-based
[2] = molecular target: T1, SARS-CoV-2 NSP3 macrodomain; test: X-ray fragment screening (XChem, crystal soaking); type: binding
human 5-HT1A receptor = molecular target: T5, human 5-HT1A receptor (Homo sapiens, UniProt P08908); test: GPCR radioligand binding assay, [3H]-8-OH-DPAT displacement, HEK293 membranes
T5 construct: expressed in transfected cells
T5 sequence (P08908 1-422): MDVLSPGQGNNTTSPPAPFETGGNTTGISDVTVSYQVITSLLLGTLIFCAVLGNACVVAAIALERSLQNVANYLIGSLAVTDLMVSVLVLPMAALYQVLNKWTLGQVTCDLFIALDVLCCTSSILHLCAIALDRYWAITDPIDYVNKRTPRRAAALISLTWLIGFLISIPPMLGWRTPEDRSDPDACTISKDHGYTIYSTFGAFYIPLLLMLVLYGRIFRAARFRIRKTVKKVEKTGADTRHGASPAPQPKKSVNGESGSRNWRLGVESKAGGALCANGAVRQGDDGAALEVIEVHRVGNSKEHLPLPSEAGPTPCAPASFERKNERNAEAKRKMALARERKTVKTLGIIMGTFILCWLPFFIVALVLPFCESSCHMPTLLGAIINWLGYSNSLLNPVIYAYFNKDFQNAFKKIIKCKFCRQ

COVID-19 = system: COVID-19; parameters: method as in PMID 33264556; conditions: trial discontinued in July 2020; cited from earlier work

NC(=O)N1CCC(C(=O)O)CC1 [SX048]
% SARS-CoV-2 macrodomain inhibition ([1]; 98 µM, replicates): 4.2%
inhibition at 98 µM ([1]; 98 µM, replicates): 5.1%
% SARS-CoV-2 macrodomain inhibition ([1]; 195 µM, replicates): 3.7% and 10.3%
% SARS-CoV-2 macrodomain inhibition ([1]; 391 µM, replicates): 5.0% and 0.65%
% SARS-CoV-2 macrodomain inhibition ([1]; 781 µM, replicates): 4.2% and 0.6%
% SARS-CoV-2 macrodomain inhibition ([1]; 1563 µM, replicates): 5.8%
inhibition at 1563 µM ([1]; 1563 µM, replicates): 6.6%
% SARS-CoV-2 macrodomain inhibition ([1]; 3125 µM, replicates): 6.5% and 15.4%
% SARS-CoV-2 macrodomain inhibition ([1]; 6250 µM, replicates): 80.4%
inhibition at 6250 µM ([1]; 6250 µM, replicates): 84.7%
% SARS-CoV-2 macrodomain inhibition ([1]; 12500 µM, replicates): 102.4%
inhibition at 12500 µM ([1]; 12500 µM, replicates): 102%
NSP3 inhibition (in words) ([1]; HTRF assay, at 5 mM concentration): significant
IC50 ([1]; IC50, SARS-CoV-2 macrodomain inhibition): 5.54 mM
IC50 ([1]; NSP3 IC50, HTRF assay): 5.5 mM
inhibition at 10 µM (human 5-HT6 receptor; 10 µM, read-out: 5-HT6 % Inhibition by plate position): 47%
inhibition at 10 µM (human 5-HT6 receptor; 5-HT6, average of exp_1 and exp_2, read-out: %inh 5-HT6 average): 47%
inhibition at 10 µM (human 5-HT6 receptor; 5-HT6, average, values below 0 and above 100% were set as 0 and 100, read-out: %inh 5-HT6 corrected*): 47%
inhibition at 10 µM (human 5-HT6 receptor; 5-HT6, replicate exp_1, read-out: %inh 5-HT6 exp_1): 56%
inhibition at 10 µM (human 5-HT6 receptor; 5-HT6, replicate exp_2, read-out: %inh 5-HT6 exp_2): 38%
inhibition at 10 µM (human 5-HT7b receptor; 10 µM, read-out: 5-HT7 % Inhibition by plate position): 0%
inhibition at 10 µM (human 5-HT7b receptor; 5-HT7, average of exp_1 and exp_2, read-out: %inh 5-HT7 average): -6.41%
inhibition at 10 µM (human 5-HT7b receptor; 5-HT7, average, values below 0 and above 100% were set as 0 and 100, read-out: %inh 5-HT7 corrected*): 0%
inhibition at 10 µM (human 5-HT7b receptor; 5-HT7, replicate exp_1, read-out: %inh 5-HT7 exp_1): -8%
inhibition at 10 µM (human 5-HT7b receptor; 5-HT7, replicate exp_2, read-out: %inh 5-HT7 exp_2): -4.44%
Ki (human thrombin): 0.301 mM
viral copy numbers normalized to the control (untreated infected cells) (SARS-CoV-2; 10 uM, replicates): 1.6898 and 2.197 and 1.352
Inhibition (%) of viral copy numbers (SARS-CoV-2; 100 uM, replicates): 8.992%
viral copy numbers normalized to the control (untreated infected cells) (SARS-CoV-2; 100 uM, replicates): 1.075 and 1.992 and 0.9101
Inhibition (%) of viral copy numbers (SARS-CoV-2; 250 uM, replicates): 15.88% and 50.18% and 14.44%
viral copy numbers normalized to the control (untreated infected cells) (SARS-CoV-2; 250 uM, replicates): 0.8412 and 0.4982 and 0.8556
Inhibition (%) of viral copy numbers (SARS-CoV-2; 500 uM, replicates): 81.12% and 43.68% and 14.44%
viral copy numbers normalized to the control (untreated infected cells) (SARS-CoV-2; 500 uM, replicates): 0.1888 and 0.5632 and 0.8556
Inhibition (%) of viral copy numbers (SARS-CoV-2; 750 uM, replicates): 51.99% and 82.49% and 35.02%
viral copy numbers normalized to the control (untreated infected cells) (SARS-CoV-2; 750 uM, replicates): 0.4801 and 0.1751 and 0.6498
Inhibition (%) of viral copy numbers (SARS-CoV-2; 1000 uM, replicates): 41.84% and 41.07%
viral copy numbers normalized to the control (untreated infected cells) (SARS-CoV-2; 1000 uM, replicates): 0.5067 and 0.5816 and 0.5893
inhibition at 10 µM (SARS-CoV-2; Severe acute respiratory syndrome coronavirus 2, Vero C1008, 10 uM, replicates, read-out: Inhibition (%) of viral copy numbers): 0%
inhibition at 1000 µM (SARS-CoV-2; Severe acute respiratory syndrome coronavirus 2, Vero C1008, 1000 uM, replicates, read-out: Inhibition (%) of viral copy numbers): 49.3%
antiviral activity in the cellular assay (in words) (SARS-CoV-2; infected Vero E6 cells): high micromolar range; also recorded: Significant antiviral activities
X-ray screen result, binding site [2]: identified in the active site
inhibition at 10 µM (human 5-HT1A receptor; 10 µM, read-out: 5-HT1A % Inhibition by plate position): 0.751%
inhibition at 10 µM (human 5-HT1A receptor; 5-HT1A, average of exp_1 and exp_2, read-out: %inh 5-HT1A average): 0.751%
inhibition at 10 µM (human 5-HT1A receptor; 5-HT1A, average, values below 0 and above 100% were set as 0 and 100, read-out: %inh 5-HT1A corrected*): 0.751%
inhibition at 10 µM (human 5-HT1A receptor; 5-HT1A, replicate exp_1, read-out: %inh 5-HT1A exp_1): 1.5%
inhibition at 10 µM (human 5-HT1A receptor; 5-HT1A, replicate exp_2, read-out: %inh 5-HT1A exp_2): 0%

lopinavir/ritonavir
clinical trial outcome against COVID-19 (COVID-19): ineffectiveness
